Measurements taken from ChEMBL document CHEMBL3988442, “University of Dundee, Small-Polar-MMV Screening Library” (2021).
“And” between values parts separate entries of the source, which are not always exact repeats. Equal entries are not always repeated.

Key:
Leishmania donovani = assay: Leishmania intramacrophage assay; type: functional, organism-based; details: Leishmania donovani
[1] = target: T1, Ubiquitin-activating enzyme e1, putative (Leishmania donovani (strain BPK282A1), UniProt E9BSI1); assay: Leishmania donovani Ubiquitin Activating Enzyme (LdE1); type: functional
T1 sequence (E9BSI1 whole entry): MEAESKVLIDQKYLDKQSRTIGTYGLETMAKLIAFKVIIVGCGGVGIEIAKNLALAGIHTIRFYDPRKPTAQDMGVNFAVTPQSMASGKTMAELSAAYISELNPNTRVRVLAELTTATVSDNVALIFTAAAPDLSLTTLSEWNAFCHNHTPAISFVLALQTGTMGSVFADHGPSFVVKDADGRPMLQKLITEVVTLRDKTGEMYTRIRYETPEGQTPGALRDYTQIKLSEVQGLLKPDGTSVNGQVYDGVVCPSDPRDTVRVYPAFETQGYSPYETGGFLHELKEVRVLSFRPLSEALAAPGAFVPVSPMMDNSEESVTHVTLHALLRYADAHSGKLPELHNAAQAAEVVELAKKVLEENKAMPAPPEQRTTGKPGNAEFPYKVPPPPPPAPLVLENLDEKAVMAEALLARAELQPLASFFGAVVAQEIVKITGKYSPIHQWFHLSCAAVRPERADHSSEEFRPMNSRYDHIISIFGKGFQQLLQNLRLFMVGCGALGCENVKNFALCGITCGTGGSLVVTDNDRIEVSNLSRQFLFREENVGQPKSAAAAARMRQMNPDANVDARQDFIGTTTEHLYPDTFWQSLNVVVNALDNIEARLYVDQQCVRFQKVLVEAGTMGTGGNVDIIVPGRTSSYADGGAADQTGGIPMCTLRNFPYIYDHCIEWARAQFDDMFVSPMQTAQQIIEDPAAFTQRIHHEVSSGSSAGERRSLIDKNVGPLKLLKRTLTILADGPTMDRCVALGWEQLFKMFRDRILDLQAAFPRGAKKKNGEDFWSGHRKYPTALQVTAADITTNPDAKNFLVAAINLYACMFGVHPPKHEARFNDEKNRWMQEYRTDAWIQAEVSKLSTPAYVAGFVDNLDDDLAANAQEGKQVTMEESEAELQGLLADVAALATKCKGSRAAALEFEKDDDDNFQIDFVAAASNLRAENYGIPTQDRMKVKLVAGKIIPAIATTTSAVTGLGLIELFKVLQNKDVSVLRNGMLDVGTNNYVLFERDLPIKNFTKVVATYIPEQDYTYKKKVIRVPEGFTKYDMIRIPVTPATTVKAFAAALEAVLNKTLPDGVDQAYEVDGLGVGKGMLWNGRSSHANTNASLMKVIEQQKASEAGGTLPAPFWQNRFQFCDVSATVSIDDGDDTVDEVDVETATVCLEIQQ

Histidine--tRNA ligase = target: T2, Histidine--tRNA ligase (Leishmania infantum, UniProt A4I591); assay: Leishmania infantum Histidine tRNA synthetase (LdHisRS); type: functional
T2 sequence (A4I591 whole entry): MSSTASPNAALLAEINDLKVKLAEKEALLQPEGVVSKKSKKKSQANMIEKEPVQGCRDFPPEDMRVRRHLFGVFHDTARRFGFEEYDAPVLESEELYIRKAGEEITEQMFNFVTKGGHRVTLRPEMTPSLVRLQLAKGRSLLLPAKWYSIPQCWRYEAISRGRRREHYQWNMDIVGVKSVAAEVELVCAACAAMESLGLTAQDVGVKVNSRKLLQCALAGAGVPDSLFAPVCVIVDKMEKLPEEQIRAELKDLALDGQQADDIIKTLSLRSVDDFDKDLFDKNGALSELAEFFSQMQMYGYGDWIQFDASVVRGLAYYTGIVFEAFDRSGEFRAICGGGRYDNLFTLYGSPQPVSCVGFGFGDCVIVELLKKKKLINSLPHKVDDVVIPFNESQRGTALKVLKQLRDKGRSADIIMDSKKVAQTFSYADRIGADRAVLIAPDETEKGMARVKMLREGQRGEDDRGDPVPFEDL

Lysine--tRNA ligase = Lysine--tRNA ligase (Plasmodium falciparum (isolate 3D7), UniProt Q8IDJ8); assay: Pf-KRS-1 (Lysyl-RNA Synthetase-1, KRS-1, cytosolic KRS) from Plasmodium falciparum. Inhibitor assay, 384 well plate, luminescence read.; type: functional
Tryptophan--tRNA ligase = Tryptophan--tRNA ligase (Mycobacterium tuberculosis (strain ATCC 25618 / H37Rv), UniProt P9WFT3); assay: Biochemical assay for Mt-TrpRS; type: functional
ClpP1P2 = ClpP1P2 (Mycobacterium tuberculosis (strain ATCC 25618 / H37Rv), UniProt P9WPC3+P9WPC5); assay: in vitro assay to detect presence of AMC directly proportional to the activity of ClpP1P2. GHDDI collaboration.; type: functional
ClpP1P2, sequence (P9WPC5 whole entry): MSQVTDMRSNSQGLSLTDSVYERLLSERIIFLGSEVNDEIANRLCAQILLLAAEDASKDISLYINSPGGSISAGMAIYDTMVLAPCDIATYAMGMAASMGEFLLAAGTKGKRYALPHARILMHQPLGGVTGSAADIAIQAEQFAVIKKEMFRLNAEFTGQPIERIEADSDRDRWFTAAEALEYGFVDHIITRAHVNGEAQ
ClpP1P2, sequence (P9WPC3 whole entry): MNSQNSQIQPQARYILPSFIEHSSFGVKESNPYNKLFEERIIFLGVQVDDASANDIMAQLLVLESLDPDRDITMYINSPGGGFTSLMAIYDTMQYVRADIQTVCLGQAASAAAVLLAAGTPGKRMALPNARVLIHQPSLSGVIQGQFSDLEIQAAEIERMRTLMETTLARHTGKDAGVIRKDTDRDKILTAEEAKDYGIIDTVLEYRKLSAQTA

Tryptophan--tRNA ligase, sequence (P9WFT3 whole entry): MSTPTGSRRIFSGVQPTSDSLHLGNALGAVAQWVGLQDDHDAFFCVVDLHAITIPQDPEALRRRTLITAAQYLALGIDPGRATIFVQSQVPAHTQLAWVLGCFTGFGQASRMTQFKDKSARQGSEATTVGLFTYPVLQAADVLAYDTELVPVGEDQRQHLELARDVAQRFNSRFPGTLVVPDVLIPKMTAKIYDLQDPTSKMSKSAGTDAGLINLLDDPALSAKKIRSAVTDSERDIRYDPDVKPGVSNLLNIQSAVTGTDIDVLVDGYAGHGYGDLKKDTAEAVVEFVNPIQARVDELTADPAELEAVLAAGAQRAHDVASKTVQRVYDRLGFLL
Lysine--tRNA ligase, sequence (Q8IDJ8 whole entry): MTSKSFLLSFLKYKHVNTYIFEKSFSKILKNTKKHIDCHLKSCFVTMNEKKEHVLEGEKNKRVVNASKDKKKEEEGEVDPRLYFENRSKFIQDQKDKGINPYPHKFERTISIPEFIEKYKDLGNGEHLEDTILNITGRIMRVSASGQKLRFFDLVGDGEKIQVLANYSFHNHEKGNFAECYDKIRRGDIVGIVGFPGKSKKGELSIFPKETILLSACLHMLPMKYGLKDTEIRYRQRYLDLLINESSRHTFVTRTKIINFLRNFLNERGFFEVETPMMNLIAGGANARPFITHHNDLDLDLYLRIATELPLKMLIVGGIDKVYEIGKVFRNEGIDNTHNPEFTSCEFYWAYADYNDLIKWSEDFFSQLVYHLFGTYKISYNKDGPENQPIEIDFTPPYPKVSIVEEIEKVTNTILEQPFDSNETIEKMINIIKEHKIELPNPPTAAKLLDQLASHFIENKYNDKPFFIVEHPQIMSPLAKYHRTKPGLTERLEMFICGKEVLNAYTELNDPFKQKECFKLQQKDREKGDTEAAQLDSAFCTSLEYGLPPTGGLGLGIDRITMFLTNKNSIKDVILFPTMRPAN

SMILES | IC50 [1] | also measured
CC(NC(=O)NCCNc1cnccn1)c1cccs1 (centres undefined) | > 100 µM | IC50 (Leishmania donovani): > 50.1 µM
Cn1nc2c(cc1=O)CN(Cc1nnc(-c3ccc(F)cc3)o1)CC2 | > 100 µM | IC50 (Histidine--tRNA ligase): 83.1 µM and 70.4 µM
Cc1ccc(-c2nnc(CN3CCc4nn(C)c(=O)cc4C3)o2)cc1 | > 100 µM | IC50 (Histidine--tRNA ligase): 10.5 µM and 12.1 µM
CNS(=O)(=O)Cc1ccc(CNC(=O)Nc2cn[nH]c2)cc1 | > 100 µM | IC50 (Lysine--tRNA ligase): > 50.1 µM
COCc1nc2cc(NCc3ccc(CO)o3)ccc2o1 | > 100 µM | IC50 (Histidine--tRNA ligase): 86.1 µM and > 100 µM
CN(C(=O)c1ccccn1)c1nc2c(s1)CCc1c-2cnn1C | > 100 µM | IC50 (Histidine--tRNA ligase): 30.7 µM and 23.3 µM
CCCN(C(=O)c1cccnc1)c1nc2c(s1)CCc1c-2cnn1C | > 100 µM | IC50 (Lysine--tRNA ligase): > 50.1 µM; IC50 (Histidine--tRNA ligase): 16.8 µM and 13.1 µM
Cn1nc2c(cc1=O)CN(Cc1nc(C3CC3)no1)CC2 | > 100 µM | IC50 (Histidine--tRNA ligase): 23.8 µM and 20.7 µM
Cn1nc2c(cc1=O)CN(Cc1nnc(-c3ccco3)o1)CC2 | > 100 µM | IC50 (Histidine--tRNA ligase): 44 µM and 59.9 µM
NC(=O)c1ccc(CNC(=O)Nc2cn[nH]c2)cc1 | > 100 µM | IC50 (Tryptophan--tRNA ligase): > 195 µM
CC(C)N1CCC(Cc2cncc(-c3cccc(C(=O)O)c3)n2)C1 (centres undefined) | > 100 µM | IC50 (Tryptophan--tRNA ligase): > 195 µM
Cc1nc(C)c(C(=O)NCCNc2ncccc2C#N)s1 | > 100 µM | –
CC(C)N1CCC(Cc2cc(-c3cccc(C(=O)O)c3)ncn2)CC1 | > 100 µM | –
COCCN(C(=O)c1cnccn1)c1nc2c(s1)CCc1c-2cnn1C | > 100 µM | IC50 (Histidine--tRNA ligase): > 100 µM
Cc1nc(C)n(CC2CCCCN2Cc2cnc(C)s2)n1 (centres undefined) | > 100 µM | –
COCc1nc2cc(NCc3cc[nH]n3)ccc2o1 | > 100 µM | IC50 (Histidine--tRNA ligase): > 100 µM
CCCN1CCC[C@]2(CCC(=O)N2Cc2ccncc2)[C@H]1CC | > 100 µM | –
Cc1nc(C)n(CC2CCCCN2Cc2nc3ccccc3o2)n1 (centres undefined) | > 100 µM | –
CN(C)c1ccc(C(=O)N2CCN(CC(C)(C)O)CC2)nn1 | > 100 µM | –
CCc1nc(C)c(C(=O)NCCNc2ncccc2C#N)s1 | > 100 µM | –
COc1ccc(OC)c(CNCc2ccnc(N3CCCCC3)c2)c1 | > 100 µM | –
O=C(NCc1ccccc1Cn1cncn1)C1CCC1 | > 100 µM | –
Cc1ccoc1C(=O)N1C[C@@H]2COC[C@]2(COCc2cccnc2)C1 | > 100 µM | –

SMILES | IC50 [1] | also measured
COc1ccc(CNCc2ccnc(N3CCOCC3)c2)cc1OC | > 100 µM | –
O=C(CCC1CCCO1)NCc1ccccc1Cn1cncn1 (centres undefined) | > 100 µM | –
CC[C@@H]1N(CC2CCC2)CCC[C@]12CCC(=O)N2Cc1ccncc1 | > 100 µM | –
CC(Cn1cccn1)NCc1nc(-c2ccsc2)no1 (centres undefined) | > 100 µM | –
CCCn1nc2c(cc1=O)CN(Cc1nnc(C3CC3)o1)CC2 | > 100 µM | –
CNS(=O)(=O)Cc1ccc(CNC(=O)Nc2cccnc2)cc1 | > 100 µM | –
Cn1nc2c(cc1=O)CN(Cc1coc(-c3ccc(F)cc3)n1)CC2 | > 100 µM | IC50 (Histidine--tRNA ligase): 16.5 µM and 18.8 µM
O=C(CCNC(=O)C1CCCC1)NCc1cccnc1-n1cncn1 | > 100 µM | –
COCCNc1ccc(CNC(=O)Nc2cn[nH]c2)cc1 | > 100 µM | –
Cc1nc(C)n(CC2CCCCN2Cc2ncc(C(C)(C)C)o2)n1 (centres undefined) | > 100 µM | –
CCc1nc2n(n1)CC(NCc1nnc(C(C)C)o1)CC2 (centres undefined) | > 100 µM | –
COc1ccc(CNCc2ccnc(N3CCCCC3)c2)cc1OC | > 100 µM | –
Cn1ccnc1CN1CCCN(C(=O)CC(C2CC2)C2CC2)CC1 | > 100 µM | –
CC(C)N1CCC(Cc2cnc(-c3cccc(C(=O)O)c3)cn2)C1 (centres undefined) | > 100 µM | –
Cc1nc(C)n(CC2CCCN2Cc2ncc(C(C)(C)C)o2)n1 (centres undefined) | > 100 µM | –
CNS(=O)(=O)Cc1cccc(CNC(=O)Nc2cn[nH]c2)c1 | > 100 µM | –
Cn1nc2c(cc1=O)CN(Cc1coc(-c3ccccc3)n1)CC2 | > 100 µM | –
CC(C)C(NC(=O)NCCNc1ccccn1)c1cccs1 (centres undefined) | > 100 µM | –
COCc1nc2cc(NCc3csc(C)n3)ccc2o1 | > 100 µM | –
Cc1nc(C(C)(C)C)sc1C(=O)NCCNc1ncccc1C#N | > 100 µM | –
Cc1nc(C)n(CC2CCCN2Cc2ncc(-c3ccccc3)o2)n1 (centres undefined) | > 100 µM | IC50 (ClpP1P2): > 100 µM
CC(C)N1CCC(Cc2cncc(-c3cccc(C(=O)O)c3)n2)CC1 | > 100 µM | –
CC(C)n1nc2c(cc1=O)CN(Cc1nnc(C3CC3)o1)CC2 | > 100 µM | –

SMILES | IC50 [1] | also measured
COCc1nc2cc(NCc3ncc[nH]3)ccc2o1 | > 100 µM | –
CC(NC(=O)NCCNc1ccccn1)c1cccs1 (centres undefined) | > 100 µM | –
CCn1nc2c(cc1=O)CN(Cc1coc(-c3ccccc3)n1)CC2 | > 100 µM | –
Cc1ncsc1C(=O)NCCNc1ncccc1C#N | > 100 µM | –
CCOCC(O)CN1CCN(C(=O)c2ccc(N(C)C)nn2)CC1 (centres undefined) | > 100 µM | –
CC(C)N1CCC(Cc2cc(-c3ccccc3C(=O)O)ncn2)CC1 | > 100 µM | –
CC(O)CN1CCN(C(=O)c2ccc(N(C)C)nn2)CC1 (centres undefined) | > 100 µM | –
Cc1ccc(-c2nc(CN3CCc4nn(C)c(=O)cc4C3)no2)cc1 | > 100 µM | IC50 (Histidine--tRNA ligase): 72.7 µM and 85.3 µM
COc1cc(CNCc2ccnc(N3CCCC3)c2)cc(OC)c1 | > 100 µM | –
CC(Cn1cccn1)NCc1nc(-c2cccs2)no1 (centres undefined) | > 100 µM | –
COCc1nc2cc(NCc3scnc3C)ccc2o1 | > 100 µM | IC50 (Histidine--tRNA ligase): 77.5 µM and 90.5 µM
CC(C)c1nc2n(n1)CC(NCc1nnnn1C1CC1)CC2 (centres undefined) | > 100 µM | –
COc1ccc(CNCc2ccnc(N3CCCC3)c2)c(OC)c1 | > 100 µM | –
COc1ccc(CNCc2ccc(N3CCCCC3)nc2)cc1OC | > 100 µM | –
O=C(c1ccccc1F)N1C[C@@H]2COC[C@]2(COCc2cccnc2)C1 | > 100 µM | –
Cn1nc2c(cc1=O)CN(Cc1coc(-c3cccc(F)c3)n1)CC2 | > 100 µM | IC50 (Histidine--tRNA ligase): 17 µM and 14.3 µM
CN(C)c1ccc(C(=O)N2CCN(CC(O)C(C)(C)C)CC2)nn1 (centres undefined) | > 100 µM | –
CC(OCC1CC1)C(=O)N1CCCN(Cc2nccn2C)CC1 (centres undefined) | > 100 µM | –
CCCN(C(=O)c1cnccn1)c1nc2c(s1)CCc1c-2cnn1C | > 100 µM | IC50 (Histidine--tRNA ligase): 60.2 µM and 72.5 µM
Cc1ccc(C(=O)NCCNc2ncccc2C#N)c(=O)[nH]1 | > 100 µM | –
O=C(CCS(=O)(=O)C1CCCC1)NCc1ccccc1Cn1cncn1 | > 100 µM | –
CNS(=O)(=O)c1ccc(CNC(=O)Nc2cn[nH]c2)cc1 | > 100 µM | –
CC(OCC1CC1)C(=O)N1CCCN(Cc2cnn(C)c2)CC1 (centres undefined) | > 100 µM | –
